In patent publication US20060160820A1, “Substituted piperazine carbamates” (Novo Nordisk A/S, priority 2003, published 2006):
Counter-ions that a name gives are not always drawn.

Legend:
[1] = target: T1, Hormone-sensitive lipase (HSL) (Homo sapiens, UniProt Q05469); assay: 3190.1: percent inhibition of hormone sensitive lipase, fluorochrome-labeled triacylglyceride emulsion; assay type: biochemical; conditions: 10 μM sample concentration; preincubated 30 min at 25° C.; 120 min incubation at 37° C.; remaining activity; read-out: 3190.1 HSL_FL % ACTIVITY (% activity relative to non-inhibited sample)
T1 construct: made in house
T1 sequence (Q05469 1-775 isoform Q05469-2): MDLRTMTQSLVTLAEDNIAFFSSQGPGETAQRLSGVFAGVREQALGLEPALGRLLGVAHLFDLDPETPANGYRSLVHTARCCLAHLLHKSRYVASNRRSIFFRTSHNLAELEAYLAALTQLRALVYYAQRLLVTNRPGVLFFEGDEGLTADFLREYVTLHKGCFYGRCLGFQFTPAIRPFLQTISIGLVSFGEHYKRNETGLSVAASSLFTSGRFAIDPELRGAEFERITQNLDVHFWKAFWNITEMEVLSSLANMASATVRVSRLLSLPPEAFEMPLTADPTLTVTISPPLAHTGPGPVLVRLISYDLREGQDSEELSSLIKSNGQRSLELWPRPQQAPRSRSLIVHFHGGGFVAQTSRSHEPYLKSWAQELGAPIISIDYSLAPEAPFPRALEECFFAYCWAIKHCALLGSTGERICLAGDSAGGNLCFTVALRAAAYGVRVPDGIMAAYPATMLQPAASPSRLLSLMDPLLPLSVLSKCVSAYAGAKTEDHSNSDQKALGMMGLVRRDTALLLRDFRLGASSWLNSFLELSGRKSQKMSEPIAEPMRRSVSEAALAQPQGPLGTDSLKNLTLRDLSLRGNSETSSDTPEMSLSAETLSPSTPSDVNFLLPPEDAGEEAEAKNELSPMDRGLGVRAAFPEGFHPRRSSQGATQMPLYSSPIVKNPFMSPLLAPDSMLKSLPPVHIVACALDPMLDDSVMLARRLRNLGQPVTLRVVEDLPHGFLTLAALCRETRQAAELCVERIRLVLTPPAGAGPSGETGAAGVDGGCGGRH
From the text: The Hormone-sensitive lipase was provided by Dr. Cecilia Holm, from Lund University Sweden or produced and purified by Novo Nordisk (NN) using the reagents and protocols used by Dr. Holm. The substrates used are: ^3H-labeled triolein (TO) from Amersham, Buckinghamshire, U.K. cat No. TRA191; 5-20 Ci/mmol dissolved in toluene, triolein (Sigma, Cat. No. T-1740), fluorochrome-labeled triacylglyceride (cis-octadec-9-enoic acid 2-[12-(7-nitrobenzo[1,2,5]oxadiazol-4-ylamino)dodecanoyloxy]-1-cis-octadec-9-enoyloxymethyl-ethyl ester) prepared by Novo Nordisk (NN) by conventional methods, and 1,3-(di[^3H]-stearin), 2-(PEG-Biotin)glycerol prepared in collaboration with Amersham Pharmacia Biotech, UK and described in WO 01/073442. Phosphatidyl choline (PC) and phosphatidyl inositol (PI) are from Sigma (St Luis MO cat. Nos. P-3556 and P-5954 respectively). All other reagents are of commercial grade and obtained from various commercial sources.
3190.1: Assay for determination of percent inhibition of hormone sensitive lipase by compound at 10 μM sample concentration.
A lipid emulsion with fluorochrome-labeled triacylglyceride and phospholipid is used as substrate with a standard concentration of highly purified HSL (12 μg/mL initial concentration corresponding to 600 ng/mL final concentration). BSA is added as product acceptor. The transfer of the fluorochrome from the lipid phase to the water (BSA) phase changes the fluorescent properties of the fluorochrome. The changes can be monitored on a fluorimeter with an excitation wavelength of 450 nm and an emission wavelength of 545 nm.
Compound and HSL (20 μL compound, 10 μL enzyme and 70 μL PED-BSA buffer) is preincubated for 30 min at 25° C. before addition of substrate (100 μL). Amount of formed product is measured after 120 min incubation at 37° C.
Results are given as percent activity relative to a non-inhibited sample (no compound).

Compound | activity at 10 µM [1] [%] | melting point [°C]
O=C(Oc1ccc(Oc2ccc(C(F)(F)F)cn2)cc1)N1CCN(CCCc2cccnc2)CC1 [Example 8, 4-(3-Pyridin-3-yl-propyl)-piperazine-1-carboxylic acid 4-(5-trifluoromethyl-pyridin-2-yloxy)-phenyl ester] | 1 | –
CC1(C)CC(=O)N(c2ccc(OC(=O)N3CCN(Cc4ccccn4)CC3)nc2)C(=O)C1 [Example 4, 4-Pyridin-2-ylmethyl-piperazine-1-carboxylic acid 4,4-dimethyl-2,6-dioxo-3,4,5,6-tetrahydro-2H-[1,3′]bipyridinyl-6′-yl ester] | 64 | –
CC1(C)CC(=O)N(CCc2ccc(OC(=O)N3CCN(CCc4ccccn4)CC3)cc2)C(=O)C1 [Example 7, 4-(2-Pyridin-2-yl-ethyl)-piperazine-1-carboxylic acid 4-[2-(4,4-dimethyl-2,6-dioxo-piperidin-1-yl)-ethyl]-phenyl ester] | 8 | –
O=C(Oc1ccc(Cc2ccc(C(F)(F)F)cc2)cc1)N1CCN(Cc2ccccn2)CC1 [Example 2, 4-Pyridin-2-ylmethyl-piperazine-1-carboxylic acid 4-(4-trifluoromethyl-benzyl)-phenyl ester] | 4 | –
O=C(Oc1ccc(Oc2ccc(C(F)(F)F)cn2)cc1)N1CCN(CCCc2cccnc2)CC1 (as salt: hydrochloride) [Example 8, 4-(3-Pyridin-3-yl-propyl)-piperazine-1-carboxylic acid 4-(5-trifluoromethyl-pyridin-2-yloxy)-phenyl ester] | – | 203 to 208
O=C(Oc1ccc(Oc2ccc(C(F)(F)F)cn2)cc1)N1CCN(CCCc2ccccn2)CC1 | – | 204 to 205
O=C(Oc1ccc(Cc2ccc(C(F)(F)F)cc2)cc1)N1CCN(CCc2ccccn2)CC1 [Example 1, 4-(2-Pyridin-2-yl-ethyl)-piperazine-1-carboxylic acid 4-(4-trifluoromethyl-benzyl)-phenyl ester] | 6 | –
O=C(Oc1ccc(Oc2ccc(C(F)(F)F)cn2)cc1)N1CCN(CCc2cccnc2)CC1 [Example 9, 4-(2-Pyridin-3-yl-ethyl)-piperazine-1-carboxylic acid 4-(5-trifluoromethyl-pyridin-2-yloxy)-phenyl ester] | 2 | –
